Experimental data as given in patent US8133913B2, “Substituted indeno [1,2-b]indole derivatives as novel inhibitors of protein kinase CK2 and their use as tumor therapeutic agents, cytostatics and diagnostic aids” (Heinrich-Heine Universitat Dusseldof, priority 2006, dated 2012).
Where two headings read alike, the source gives them in different places.

Experiments:
KYSE-70 = assay: Proliferation of tumor cell lines (Bracht et al.); assay type: cell-based; settings: Homo sapiens; for activity at 20 µM: KYSE-70, tested at 20 μM, read-out: T/C (%) Mean
Aurora-A = target: T1, Aurora-A (Homo sapiens, UniProt O14965); assay: Radiometric protein kinase assay (33PanQinase Activity Assay); assay type: biochemical
T1 construct: made in house; host or cells: Sf9 insect cells, baculovirus
T1 sequence (O14965 1-403): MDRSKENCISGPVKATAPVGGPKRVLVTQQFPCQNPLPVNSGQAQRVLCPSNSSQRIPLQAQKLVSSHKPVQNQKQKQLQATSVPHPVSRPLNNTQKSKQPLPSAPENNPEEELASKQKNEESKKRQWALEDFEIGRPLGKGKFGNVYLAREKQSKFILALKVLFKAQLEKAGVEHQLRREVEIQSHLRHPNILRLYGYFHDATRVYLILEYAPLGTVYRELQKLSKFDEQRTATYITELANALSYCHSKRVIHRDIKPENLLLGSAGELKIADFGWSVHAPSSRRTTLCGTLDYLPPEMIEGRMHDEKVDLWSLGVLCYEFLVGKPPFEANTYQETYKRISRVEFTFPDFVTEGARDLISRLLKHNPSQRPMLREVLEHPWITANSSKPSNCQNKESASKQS
From the text: (§1) AKTI1, ARK5, Aurora-A, Aurora-B, B-RAF-VE, CDK2/CycA, CDK4/CycD1, CK2-alpha1 (catalytic subunit of CK2), EGF-R, EPHB4, ERBB2, FAK, IGF1-R, SRC, VEGF-R2, VEGF-R3, FLT3, INS-R, MET, PDGFR-beta, PLK1, SAK, TIE2, COT.
(§2) All the protein kinases were expressed in Sf9 insect cells as human recombinant GST fusion proteins or His-tagged proteins by the baculovirus expression system. Kinases were purified by affinity chromatography either by GSH-agarose (Sigma) or Ni—NTH-agarose (Qiagen). The purity of the kinases was tested by SDS-PAGE/silver staining, and the identity of the kinases was verified by Western blot analysis with specific antibodies or mass spectroscopy.
(§3) A radiometric protein kinase assay (33PanQinase® Activity Assay) was used to measure the kinase activity for the 24 protein kinases. The kinase assays were carried out in 96-well FlashPlates™ from Perkin Elmer/NEN (Boston, Mass., USA) in a reaction volume of 50 μl. The reaction mixture was pipetted in 4 steps in the following sequence: • 20 μl of assay buffer • 5 μl of ATP solution (in H2O) • 5 μl of test compound (in 10% DMSO) • 10 μl of substrate/10 μl of enzyme solution (premixed)
(§4) The assays for all the enzymes contained 60 mM HEPES-NaOH, pH 7.5, 3 mM MgCl2, 3 mM MnCl2, 3 μM Na orthovanadate, 1.2 mM DTT, 50 μg/ml PEG20000, 1 μM [γ-^33P]-ATP (about 5×10^5 cpm per well).
(§5) The reaction mixture was incubated at 30° C. for 80 minutes. The reaction was stopped with 50 μl of 2% (v/v) H3PO4. The plates were aspirated and washed twice with 200 μl of 0.9% (w/v) NaCl. The incorporation of ^33Pi was determined using a microtiter plates scintillation counter (Microbeta Trilux, Wallac).

B-RAF-VE = target: T2, B-RAF-VE (Homo sapiens, UniProt P15056, V600E); assay: as above; assay type: biochemical
T2 construct: made in house; host or cells: Sf9 insect cells, baculovirus
T2 sequence (P15056 whole entry V600E): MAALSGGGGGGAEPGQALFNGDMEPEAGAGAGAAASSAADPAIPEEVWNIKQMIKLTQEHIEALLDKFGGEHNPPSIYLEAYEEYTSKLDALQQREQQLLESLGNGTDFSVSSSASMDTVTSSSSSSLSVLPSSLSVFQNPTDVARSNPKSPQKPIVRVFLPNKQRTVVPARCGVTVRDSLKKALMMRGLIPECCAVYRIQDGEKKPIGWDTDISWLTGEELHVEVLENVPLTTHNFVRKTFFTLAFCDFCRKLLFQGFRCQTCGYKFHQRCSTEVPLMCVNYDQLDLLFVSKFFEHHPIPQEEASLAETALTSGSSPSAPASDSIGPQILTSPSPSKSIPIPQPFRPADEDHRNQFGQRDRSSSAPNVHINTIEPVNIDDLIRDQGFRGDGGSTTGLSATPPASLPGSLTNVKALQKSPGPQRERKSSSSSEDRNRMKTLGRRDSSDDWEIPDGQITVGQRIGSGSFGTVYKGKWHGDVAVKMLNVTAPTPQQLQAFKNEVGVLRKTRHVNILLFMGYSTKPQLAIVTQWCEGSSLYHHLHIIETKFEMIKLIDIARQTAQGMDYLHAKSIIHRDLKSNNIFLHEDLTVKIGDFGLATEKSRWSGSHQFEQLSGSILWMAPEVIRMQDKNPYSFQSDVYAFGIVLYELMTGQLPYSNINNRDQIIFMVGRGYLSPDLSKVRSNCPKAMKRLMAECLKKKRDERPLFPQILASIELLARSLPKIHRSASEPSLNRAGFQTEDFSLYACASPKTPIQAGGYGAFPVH
From the text: as §1, §2, §3, §4, §5

COT = target: T3, COT (Homo sapiens, UniProt P41279); assay: as above; assay type: biochemical
T3 construct: made in house; host or cells: Sf9 insect cells (baculovirus)
T3 sequence (P41279 whole entry): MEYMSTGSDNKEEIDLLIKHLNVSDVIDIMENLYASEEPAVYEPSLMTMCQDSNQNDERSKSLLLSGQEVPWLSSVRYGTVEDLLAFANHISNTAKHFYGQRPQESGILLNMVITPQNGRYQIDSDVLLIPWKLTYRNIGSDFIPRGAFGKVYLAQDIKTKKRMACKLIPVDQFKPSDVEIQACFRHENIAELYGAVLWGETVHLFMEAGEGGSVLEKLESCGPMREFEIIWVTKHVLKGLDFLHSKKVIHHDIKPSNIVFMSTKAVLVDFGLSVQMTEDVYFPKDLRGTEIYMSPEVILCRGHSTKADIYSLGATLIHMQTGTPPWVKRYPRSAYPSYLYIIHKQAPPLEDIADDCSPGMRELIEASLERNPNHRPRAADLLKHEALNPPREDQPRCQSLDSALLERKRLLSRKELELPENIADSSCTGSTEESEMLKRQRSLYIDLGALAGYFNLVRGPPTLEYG
From the text: as §1, §2, §3, §4, §5

EPHB4 = target: T4, EPHB4 (Homo sapiens, UniProt P54760); assay: as above; assay type: biochemical
T4 construct: made in house; host or cells: Sf9 insect cells, baculovirus
T4 sequence (P54760 16-987): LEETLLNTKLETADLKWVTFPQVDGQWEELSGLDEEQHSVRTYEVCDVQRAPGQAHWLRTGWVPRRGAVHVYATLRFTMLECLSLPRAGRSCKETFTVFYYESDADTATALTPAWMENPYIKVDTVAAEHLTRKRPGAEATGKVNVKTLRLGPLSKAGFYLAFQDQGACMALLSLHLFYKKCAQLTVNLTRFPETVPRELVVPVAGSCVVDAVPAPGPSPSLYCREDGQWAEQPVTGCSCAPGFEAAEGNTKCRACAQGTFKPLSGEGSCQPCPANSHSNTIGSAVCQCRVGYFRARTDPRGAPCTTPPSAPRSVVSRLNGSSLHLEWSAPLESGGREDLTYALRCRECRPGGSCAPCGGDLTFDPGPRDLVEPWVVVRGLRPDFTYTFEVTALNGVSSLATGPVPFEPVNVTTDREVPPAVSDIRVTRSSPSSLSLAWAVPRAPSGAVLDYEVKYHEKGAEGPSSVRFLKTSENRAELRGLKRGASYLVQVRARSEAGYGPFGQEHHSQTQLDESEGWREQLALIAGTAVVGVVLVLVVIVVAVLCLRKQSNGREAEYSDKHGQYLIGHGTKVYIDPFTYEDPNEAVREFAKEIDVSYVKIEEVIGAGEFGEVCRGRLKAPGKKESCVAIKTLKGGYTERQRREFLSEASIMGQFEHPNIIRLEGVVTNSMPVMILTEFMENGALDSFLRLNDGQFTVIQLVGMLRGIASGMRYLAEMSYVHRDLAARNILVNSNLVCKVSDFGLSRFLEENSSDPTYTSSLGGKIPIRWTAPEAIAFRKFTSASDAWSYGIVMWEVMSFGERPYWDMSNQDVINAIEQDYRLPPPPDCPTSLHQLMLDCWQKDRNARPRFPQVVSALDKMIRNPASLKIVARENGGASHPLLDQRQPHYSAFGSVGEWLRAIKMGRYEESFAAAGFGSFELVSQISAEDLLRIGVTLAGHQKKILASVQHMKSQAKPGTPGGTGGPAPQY
From the text: as §1, §2, §3, §4, §5

FAK = target: T5, FAK (Homo sapiens, UniProt Q05397); assay: as above; assay type: biochemical
T5 construct: made in house; host or cells: Sf9 insect cells, baculovirus
T5 sequence (Q05397 whole entry): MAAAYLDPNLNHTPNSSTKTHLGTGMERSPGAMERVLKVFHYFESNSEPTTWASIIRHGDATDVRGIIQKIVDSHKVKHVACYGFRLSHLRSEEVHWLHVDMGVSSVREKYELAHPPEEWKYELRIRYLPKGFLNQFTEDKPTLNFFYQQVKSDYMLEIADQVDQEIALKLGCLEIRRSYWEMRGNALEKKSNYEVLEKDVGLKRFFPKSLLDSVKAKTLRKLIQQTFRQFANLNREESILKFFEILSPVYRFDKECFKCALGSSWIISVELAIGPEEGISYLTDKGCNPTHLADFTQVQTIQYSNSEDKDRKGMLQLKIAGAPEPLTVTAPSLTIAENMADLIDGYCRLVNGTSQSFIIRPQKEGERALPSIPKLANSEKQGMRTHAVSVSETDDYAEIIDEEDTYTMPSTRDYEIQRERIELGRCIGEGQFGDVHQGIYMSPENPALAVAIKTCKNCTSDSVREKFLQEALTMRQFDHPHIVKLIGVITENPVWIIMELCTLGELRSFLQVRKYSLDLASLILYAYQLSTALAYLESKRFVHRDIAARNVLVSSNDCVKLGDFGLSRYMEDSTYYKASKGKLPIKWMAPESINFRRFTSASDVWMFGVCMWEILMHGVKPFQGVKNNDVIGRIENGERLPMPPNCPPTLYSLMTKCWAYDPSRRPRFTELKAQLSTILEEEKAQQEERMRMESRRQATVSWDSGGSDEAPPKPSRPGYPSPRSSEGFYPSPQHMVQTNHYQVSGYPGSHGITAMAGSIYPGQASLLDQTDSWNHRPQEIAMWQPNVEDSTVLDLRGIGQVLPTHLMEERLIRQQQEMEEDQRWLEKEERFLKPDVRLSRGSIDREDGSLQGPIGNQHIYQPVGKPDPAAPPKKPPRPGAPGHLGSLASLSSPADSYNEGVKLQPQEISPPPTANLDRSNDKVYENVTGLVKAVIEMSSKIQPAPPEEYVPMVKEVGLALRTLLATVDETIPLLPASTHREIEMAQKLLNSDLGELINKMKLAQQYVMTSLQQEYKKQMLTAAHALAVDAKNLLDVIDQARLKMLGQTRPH
From the text: as §1, §2, §3, §4, §5

MET = target: T6, MET (Homo sapiens, UniProt P08581); assay: as above; assay type: biochemical
T6 construct: made in house; host or cells: Sf9 insect cells, baculovirus
T6 sequence (P08581 25-1390): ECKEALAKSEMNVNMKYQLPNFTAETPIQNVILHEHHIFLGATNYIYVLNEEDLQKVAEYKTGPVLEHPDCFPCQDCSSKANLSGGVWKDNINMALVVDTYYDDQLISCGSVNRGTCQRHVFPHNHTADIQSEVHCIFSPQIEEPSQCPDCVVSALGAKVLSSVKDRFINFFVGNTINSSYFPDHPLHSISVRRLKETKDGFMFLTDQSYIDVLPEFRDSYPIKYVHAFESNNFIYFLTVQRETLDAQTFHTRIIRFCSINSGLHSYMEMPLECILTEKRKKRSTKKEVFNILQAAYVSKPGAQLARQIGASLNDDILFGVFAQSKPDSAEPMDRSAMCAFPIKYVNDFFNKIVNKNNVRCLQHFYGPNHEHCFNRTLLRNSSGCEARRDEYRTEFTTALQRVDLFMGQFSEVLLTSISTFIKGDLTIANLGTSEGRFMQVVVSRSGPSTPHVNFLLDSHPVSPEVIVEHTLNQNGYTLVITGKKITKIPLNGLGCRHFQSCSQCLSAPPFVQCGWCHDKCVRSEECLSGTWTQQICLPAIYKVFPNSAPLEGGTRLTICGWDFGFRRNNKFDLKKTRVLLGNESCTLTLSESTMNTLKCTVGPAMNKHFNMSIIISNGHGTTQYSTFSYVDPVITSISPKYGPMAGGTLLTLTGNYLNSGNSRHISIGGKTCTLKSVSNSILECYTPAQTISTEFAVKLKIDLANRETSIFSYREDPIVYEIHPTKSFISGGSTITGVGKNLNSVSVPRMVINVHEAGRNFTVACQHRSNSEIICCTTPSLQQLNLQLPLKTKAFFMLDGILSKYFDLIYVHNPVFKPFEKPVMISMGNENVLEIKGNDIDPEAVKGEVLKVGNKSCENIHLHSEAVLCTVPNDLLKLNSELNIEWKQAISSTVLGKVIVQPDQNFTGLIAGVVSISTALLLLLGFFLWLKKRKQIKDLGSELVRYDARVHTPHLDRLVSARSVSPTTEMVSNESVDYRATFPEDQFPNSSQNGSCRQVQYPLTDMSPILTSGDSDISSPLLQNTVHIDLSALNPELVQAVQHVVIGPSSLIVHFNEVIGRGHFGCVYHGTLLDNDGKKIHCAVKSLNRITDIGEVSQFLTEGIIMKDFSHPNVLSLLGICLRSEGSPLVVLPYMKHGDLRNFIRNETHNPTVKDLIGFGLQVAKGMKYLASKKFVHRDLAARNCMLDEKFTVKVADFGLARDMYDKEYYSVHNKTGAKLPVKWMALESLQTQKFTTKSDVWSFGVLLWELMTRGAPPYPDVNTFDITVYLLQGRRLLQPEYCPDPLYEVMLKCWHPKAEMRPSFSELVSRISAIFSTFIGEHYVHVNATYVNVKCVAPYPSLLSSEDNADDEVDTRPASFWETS
From the text: as §1, §2, §3, §4, §5

PLK1 = target: T7, PLK1 (Homo sapiens, UniProt P53350); assay: as above; assay type: biochemical
T7 construct: made in house; host or cells: Sf9 insect cells, baculovirus
T7 sequence (P53350 whole entry): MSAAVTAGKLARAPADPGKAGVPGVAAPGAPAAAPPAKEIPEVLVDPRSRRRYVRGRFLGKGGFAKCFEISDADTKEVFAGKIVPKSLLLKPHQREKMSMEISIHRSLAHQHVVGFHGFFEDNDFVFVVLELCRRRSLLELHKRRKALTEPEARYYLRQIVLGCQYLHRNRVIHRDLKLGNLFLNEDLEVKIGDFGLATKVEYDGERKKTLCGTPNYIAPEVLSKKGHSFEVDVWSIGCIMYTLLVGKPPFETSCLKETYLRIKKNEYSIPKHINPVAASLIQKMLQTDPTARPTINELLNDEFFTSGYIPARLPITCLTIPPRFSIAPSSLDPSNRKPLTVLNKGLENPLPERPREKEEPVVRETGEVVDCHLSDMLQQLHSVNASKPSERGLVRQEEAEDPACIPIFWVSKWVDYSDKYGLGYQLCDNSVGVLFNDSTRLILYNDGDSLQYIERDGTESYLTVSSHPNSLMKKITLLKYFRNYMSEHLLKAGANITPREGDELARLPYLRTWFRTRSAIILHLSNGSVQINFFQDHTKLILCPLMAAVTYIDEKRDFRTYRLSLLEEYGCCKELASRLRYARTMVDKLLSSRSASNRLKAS
From the text: as §1, §2, §3, §4, §5

VEGF-R2 = target: T8, VEGF-R2 (Homo sapiens, UniProt P35968); assay: as above; assay type: biochemical
T8 construct: made in house; host or cells: Sf9 insect cells, baculovirus
From the text: as §1, §2, §3, §4, §5

[1] = 1 μM ATP, read-out: IC50 values [μM] Aurora-A
[2] = 1 μM ATP, read-out: IC50 values [μM] B-RAF-VE
[3] = 1 μM ATP, autophosphorylation, read-out: IC50 values [μM] COT
[4] = 1 μM ATP, read-out: IC50 values [μM] EPHB4
[5] = 1 μM ATP, read-out: IC50 values [μM] FAK
[6] = 1 μM ATP, read-out: IC50 values [μM] MET
[7] = 1 μM ATP, read-out: IC50 values [μM] PLK1
[8] = 1 μM ATP, read-out: IC50 values [μM] VEGF-R2

| Compound | IC50 (KYSE-70; KYSE-70, read-out: IC50 (μM) Mean, inhibition of cell proliferation) | activity at 20 µM (KYSE-70) | IC50 (Aurora-A; [1]) | IC50 (B-RAF-VE; [2]) | IC50 (COT; [3]) | IC50 (EPHB4; [4]) | IC50 (FAK; [5]) | IC50 (MET; [6]) | IC50 (PLK1; [7]) | IC50 (VEGF-R2; [8]) | IC50 (Aurora-A) | IC50 (B-RAF-VE) | IC50 (COT) | IC50 (EPHB4) | IC50 (FAK) | IC50 (MET) | IC50 (PLK1) | IC50 (VEGF-R2) |
| --- | --- | --- | --- | --- | --- | --- | --- | --- | --- | --- | --- | --- | --- | --- | --- | --- | --- | --- |
| O=c1ccc(=O)c2c1c1c(=O)c3ccccc3c1n2Cc1ccccc1 [Compound 6c, 5-Benzyl 5,6,9,10-tetrahydroindeno[1,2-b]indole-6,9,10-trione] | 2.83 µM | 12.1% | > 10 µM | > 10 µM | 4.4 µM | 9.3 µM | > 10 µM | > 10 µM | > 10 µM | 3.3 µM | – | – | – | – | – | – | – | – |
| CC(C)n1c2c(=O)ccc(=O)c2c2c(=O)c3ccccc3c21 [Compound 6b, 5-Isopropyl-5H-indeno[1,2-b]indole-6,9,10-trione] | – | 1.26% | 5.8 µM | > 10 µM | 9.3 µM | > 10 µM | > 10 µM | > 10 µM | > 10 µM | 1.9 µM | – | – | – | – | – | – | – | – |
| CC(C)n1c2c(c3c1-c1ccccc1C3=O)C(=O)CCC2 [Compound 4b, 5-Isopropyl-5,6,7,8-tetrahydroindeno[1,2-b]indole-9,10-dione] | – | 74.9% | – | – | – | – | – | – | – | – | > 10 µM | > 10 µM | > 10 µM | > 10 µM | > 10 µM | > 10 µM | > 10 µM | > 10 µM |
